{
  "source": "patent US20010016590A1",
  "about": "“Use of hydroxymatairesinol for prevention of cancers, non-cancer, hormone dependent diseases and cardiovascular diseases by hydroxymatairesinol, and a pharmaceutical preparation, food additive and food product comprising hydroxymatairesinol” (priority 1999, published 2001)",
  "key": {"aromatase": {"target": "T1, aromatase (Homo sapiens, UniProt P11511)", "T1 construct": "800 μl cell suspension (1 million cells); endogenous in cells; host or cells: JEG-3 human choriocarcinoma cells", "T1 sequence (P11511 1-503)": "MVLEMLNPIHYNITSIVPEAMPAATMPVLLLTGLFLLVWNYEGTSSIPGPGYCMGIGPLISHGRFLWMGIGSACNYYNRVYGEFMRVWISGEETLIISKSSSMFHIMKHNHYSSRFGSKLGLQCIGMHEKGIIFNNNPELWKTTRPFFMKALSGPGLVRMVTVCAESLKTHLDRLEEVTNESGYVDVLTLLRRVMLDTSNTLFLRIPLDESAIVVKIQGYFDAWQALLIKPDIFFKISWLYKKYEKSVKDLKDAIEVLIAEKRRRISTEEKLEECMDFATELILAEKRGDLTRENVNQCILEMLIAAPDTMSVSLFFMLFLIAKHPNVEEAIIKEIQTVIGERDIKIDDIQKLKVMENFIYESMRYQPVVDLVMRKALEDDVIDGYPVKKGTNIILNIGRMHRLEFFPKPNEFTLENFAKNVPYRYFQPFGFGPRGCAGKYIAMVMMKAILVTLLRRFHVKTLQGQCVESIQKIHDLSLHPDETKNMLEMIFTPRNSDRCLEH", "assay": "Aromatase inhibiting capacity in JEG-3 cells", "type": "cell-based", "conditions": "FIG. 1, enterolactone within 1.0 to 10.0 μM", "experimental": "The effects of HMR and structurally related lignans (enterolactone, enterodiol and 7-hydroxyenterolactone) were studied on formation of ^3H-17β-estradiol from ^3H-andostenedione in JEG-3 cells, human choriocarcinoma cell line. […] Cells were maintained in DMEM containing 10% fetal calf serum (FCS). The incubation mixture contained 50 μl ^3H-androst-4-ene, 3,17-dione (0.5 nM), 50 μl unlabelled androstenedione (0.5 nM), 100 μl test compounds (10 mM) and 800 μl cell suspension (1 million cells). After the incubation for 4 h, unlabelled carriers (androstenedione, testosterone, 17β-estradiol and estrone) were added. The steroids were extracted twice with 3.0 ml dichloromethane. […] The column system consisted of a guard column followed by a C18 150×3.9 mm ID analytical column (Technopak 10 C18 HPLC Technology; Wellington House, Cheshire, UK). The mobile phase was acetonitrile /water (35/65) and the flow rate was 1.2 ml/min. For in-line detection of the radioactive metabolites, the eluent of the HPCL column was continuously mixed with liquid scintillant and then monitored with in-line radioactivity detector."}, "MCF-7 cells": {"tested_on": "MCF-7 cells", "assay": "Estrogenic and antiestrogenic activity in MCF-7 cell proliferation assay", "type": "cell-based, human", "conditions": "FIG. 2", "experimental": "The MCF-7 cell line (human breast cancer cells) stock cultures were grown in phenol red free RPMI medium supplemented with 5 % FCS, 100 U/ml penicillin and 100 μg/ml streptomycin, 10 μg/ml insulin and 1 nM 17μ-estradiol in T-75 cell culture bottles. The medium was replaced with fresh ones three times per week. The stock cultures were harvested by trypsinization and suspended in 10 ml phenol red free versene solution and centrifuged for 5 min 800 rpm. The cell pellet was carefully resuspended into RPMI medium supplemented with 5% dextran charcoal stripped FCS (dcFCS) and seeded on 6 well plates 50 000 cells/ 3.0 ml medium/ well. On the second day of culture the medium was changed and test compounds were added. To test the estrogenicity of the lignan compounds, they were diluted in ethanol and added to cell cultures in final concentration of […]. In each proliferation assay 1.0 nM 1 7β-estradiol solution in ethanol was used as a positive control for estrogenic response. Equal amounts of ethanol were added to control wells. To test the antiestrogenicity both 17β-estradiol and lignan solutions were added to cell cultures. The cells were cultured for 5 to 7 days in the presence of test compounds, and the medium was changed every second day. Cell proliferation was quantified by counting the released nuclei with Coulter counter."}, "[1]": {"tested_on": "uterine growth of immature rats", "assay": "Immature rat uterotropic test", "type": "in vivo", "conditions": "7 days treatment, FIG. 3", "experimental": "The estrogenicity HMR was evaluated by the uterotropic assay in immature rats which was performed as described earlier (Jordan et al. 1977), with the exception of treatment time which was 7 days instead of 3 days in the reference study. The treatment time was longer because of the expected weak estrogenicity of the test compound. The treatment of immature rats with an aromatase inhibitor (MPV-2213ad), which prevents biosynthesis of estradiol, was used as a methodological control for non-estrogen-stimulated uterus."}, "[2]": {"tested_on": "intact Noble strain male rats", "assay": "Estrogenic (antiandrogenic) activity in intact adult male rats", "type": "in vivo, rat", "experimental": "(§1) Estrogenic (anfiandrogenic) and antiestrogenic effects of HMR were studied in intact and hypoandrogenic Noble strain male rats (age 6-9 month), correspondingly. The chronic hypoandrogenic state with both structural and functional changes in the male reproductive tract was induced by neonatal estrogenization (diethylstilbestrol, 10.0 μg/kg body weight in rape oil s.c. on postnatal days 1-5). These changes are known to be partly reversible by aromatase inhibitor treatment consisting daily dose of MPV-2213 ad 10-30 mg/kg body weight (Streng et al. unpublished observations).\n(§2) Twelve of both intact and hypoandrogenic animals were cavaged in daily dosage of HMR 50 mg/kg body weight in rape oil. Another twelve animals from both animal models were cavaged with rape oil only as a placebo treatment. After four-week treatment the animals were sacrificed. The weights of testis and accessory sex glands (ventral prostate, seminal vesicles and coagulating gland) were measured. Serum and testis testosterone and pituitary and serum luteinizing hormone (LH) levels were measured by immunoassays (Haavisto et al. 1993)."}, "[3]": {"tested_on": "hypoandrogenic Noble strain male rats", "assay": "Antiestrogenic activity in hypoandrogenic (neonatally estrogenized) adult male rats", "type": "in vivo, rat", "conditions": "hypoandrogenic animals", "experimental": "as §1, §2"}, "[4]": {"tested_on": "DMBA-induced mammary gland tumors", "assay": "Antitumor activity in rat DMBA-induced mammary cancer model", "type": "in vivo", "experimental": "Antitumor activity of HMR in rat mammary cancer was studied as described earlier ([…] et al. 1986). Fifty-day-old female Sprague-Dawley rats were given 12.0 mg DMBA (dimethylbentz[a]anthracene) by […]. After approximately 6 weeks palpable tumors could be detected, whereafter the width (w) and the length (1) of the tumors were measured once a week to determine the tumor volumes according to a formula V=(πw^21)/12. The rats were also weighed once a week. The rats were allocated in 3 different groups so that the total number of tumors in the beginning of the experiment was similar in each group: (1) Control group 8 animals, (2) HMR 3.0 mg/kg 7 animals, and (3) HMR 15.0 mg/kg 7 animals, one of which had to be killed before the end of the experiment. HMR was given per os starting 9 weeks after the DMBA-induction, i.e. 3 weeks after palpable tumors appeared, and was given daily for 7.5 weeks. At the end of the experiment the tumors were classified in groups according to their growth pattern: 1. Growing tumors (PD=progressive disease); 2. Non-growing, stabilized tumors (SD=stabilized disease, no change in tumor volume or regression less than 75%; 3. Regressing tumors (PR=partial response, regression of tumor volume more than 75%); 4. Disappeared tumors (CR=complete response, no palpable tumor)."}, "uterine weight": {"tested_on": "uterine weight", "conditions": "feeding during pregnancy and lactation to rats; not evident at later stages; Tou et al. 1998; cited from earlier work"}, "[5]": {"tested_on": "antiestrogen-sensitive DMBA-induced breast cancer", "conditions": "supplementation of a high-fat diet; flaxseed flour 5% or 10%; Serraino and Thompson; Thompson et al.; cited from earlier work"}, "[6]": {"tested_on": "chemically induced aberrant crypts in rat colon", "conditions": "Serraino and Thompson 1992, Jenab and Thompson 1996; cited from earlier work"}, "[7]": {"conditions": "intact animals, 50 mg/kg HMR, four week exposure, mean"}},
  "data": [
    {"molecule": "O=C1OC[C@H](Cc2cccc(O)c2)[C@H]1[C@@H](O)c1cccc(O)c1", "note": "[7-hydroxyenterolactone]", "values": [
      {"measurement": "Inhibition of 3H-17β-estradiol formation from 3H-androstenedione (aromatization)", "setting": "aromatase", "value": "no inhibitory effects"}
    ]},
    {"molecule": "COc1cc(CC2C(=O)OCC2C(O)c2ccc(O)c(OC)c2)ccc1O", "note": "(stereo not shown) [HMR, hydroxymatairesinol]", "values": [
      {"measurement": "Inhibition of 3H-17β-estradiol formation from 3H-androstenedione (aromatization)", "setting": "aromatase", "value": "no inhibitory effects"},
      {"measurement": "Estrogenic or antiestrogenic activity in MCF-7 cell proliferation", "setting": "MCF-7 cells", "value": "very weak, not statistically significant"},
      {"measurement": "Estrogenic effect on the uterine weight gain", "setting": "[1]", "value": "no significant estrogenic effect"},
      {"measurement": "Changes in the weights of accessory sex glands and testis vs placebo", "setting": "[2]; control (intact) animals, 4-week treatment", "value": "no significant changes"},
      {"measurement": "Pituitary LH", "setting": "[2]; [7]", "value": 6.84, "unit": "µg/pit"},
      {"measurement": "Serum LH", "setting": "[2]; [7]", "value": 1.09, "unit": "ng/mL"},
      {"measurement": "Serum testosterone", "setting": "[2]; [7]", "value": 2.77, "unit": "ng/mL"},
      {"measurement": "Changes in testosterone or LH concentrations vs placebo", "setting": "[2]; intact animals, 4-week treatment", "value": "no significant changes"},
      {"measurement": "Pituitary LH", "setting": "[3]; 50 mg/kg HMR, four week exposure, mean", "value": 7.53, "unit": "µg/pit"},
      {"measurement": "Changes in testosterone or LH concentrations vs placebo", "setting": "[3]; 4-week treatment", "value": "no significant changes"},
      {"measurement": "Changes in the weights of accessory sex glands and testis vs placebo", "setting": "[3]; 4-week treatment", "value": "no significant changes"},
      {"measurement": "Dose-dependency of antitumor action", "setting": "[4]; 3.0 vs 15.0 mg/kg", "value": "no clear dose-dependency"},
      {"measurement": "Antitumor effect (growing PD versus SD, PR, CR tumors)", "setting": "[4]; HMR 3.0 and 15.0 mg/kg per os daily for 7.5 weeks, FIG. 4", "value": "statistically very significant"}
    ]},
    {"molecule": "OCC(Cc1cccc(O)c1)C(CO)Cc1cccc(O)c1", "note": "(stereo not shown) [enterodiol, 2,3-bis-(3’-hydroxybenzyl)-butane-1,4-diol]", "values": [
      {"measurement": "Inhibition of 3H-17β-estradiol formation from 3H-androstenedione (aromatization)", "setting": "aromatase", "value": "noninhibitory"}
    ]},
    {"molecule": "O=C1OCC(Cc2cccc(O)c2)C1Cc1cccc(O)c1", "note": "(stereo not shown) [enterolactone, 2,3-bis-(3’-hydroxybenzyl)-butyrolactone]", "values": [
      {"measurement": "Inhibition of 3H-17β-estradiol formation from 3H-androstenedione (aromatization)", "setting": "aromatase", "value": "dose-dependent inhibition"}
    ]},
    {"molecule": "secoisolariciresinol-diglycoside [SDG]", "values": [
      {"measurement": "Uterine weight (estrogen-like activity)", "setting": "uterine weight", "value": "increased the uterine weight at weaning"},
      {"measurement": "Development of DMBA-induced breast cancer", "setting": "[5]", "value": "prevented the development"},
      {"measurement": "Formation of chemically induced aberrant crypts", "setting": "[6]", "value": "inhibited"}
    ]}
  ]
}
